Test results: patent US9328138B2 (priority 2011, dated 2016)
Where two headings read alike, the source gives them in different places.

Tests used:
[1] = target: T1, HCV genotype 1b (BK) NS3 modified enzyme with a R155K mutation (Hepatitis C virus genotype 1b, UniProt P26663, R1181K); assay: HCV NS3 protease time-resolved fluorescence (TRF) assay, genotype 1b R155K; type: biochemical; details: Ki 1b R155K
T1 construct: HCV genotype 1b (BK) NS3 modified enzyme
Summary of the method: (§1)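 IC50 values derive from 4-parameter fitting of TRF signal after a 6 h room-temperature cleavage of 25 nM peptide substrate by NS3/NS4A that had been pre-incubated 10 min with compound.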

[2] = target: HCV NS3 protease genotype 3a (3A-1) (Hepatitis C virus genotype 3a, UniProt Q81258); assay: HCV NS3 protease time-resolved fluorescence (TRF) assay, genotype 3a; type: biochemical
Summary of the method: as §1

[3] = genotype 1b (BK) NS3 R155K, single value

Structure (SMILES)	Ki [1, 3] [pM]	Ki ([2]; Ki 3a) [pM]	Ki ([1]; first of two values printed in the cell (not explained)) [pM]	Ki ([1]; second of two values printed in the cell (not explained)) [pM]	Ki ([2]; read-out: Ki 3a) [pM]
C=C[C@@H]1C[C@]1(NC(=O)[C@@H]1C[C@@H]2CN1C(=O)[C@H](C(C)(C)C)NC(=O)O[C@@H]1CCC[C@H]1CCCCCc1c(nc3ccccc3c1OCCCN1CCOCC1)O2)C(=O)NS(=O)(=O)C1(COC)CC1 [Example 64, (3aR,7S,10S,12R, 24aR)-7-tert-butyl-N-[(1R,2S)-2-ethenyl-1-({[1-(methoxymethyl)cyclopropyl]sulfonyl}carbamoyl)cyclopropyl]-19-[3-(morpholin-4-yl)propoxy]-5,8-dioxo-1,2,3,3a,5,6,7,8, 11,12,20,21,22,23,24, 24a-hexadecahydro-10H-9,12-methanycyclopenta [18,19][1,10,3,6] dioxadiazacyclo-nonadecino [11,12-b]quinoline-10-carboxamide]	430	5500			
C=C[C@@H]1C[C@]1(NC(=O)[C@@H]1C[C@@H]2CN1C(=O)[C@H](C1CCCC1)NC(=O)O[C@@H]1CCC[C@H]1CC/C=C/Cc1c(nc3ccccc3c1OCCCOP(=O)(O)O)O2)C(=O)NS(=O)(=O)C1CC1 [Example 95, 3-{[(3aR,7S,10S,12R,21E,24aS)-7-cyclopentyl-10-({(1R,2S)-1-[(cyclopropylsulfonyl)carbamoyl]-2-ethenylcyclopropyl}carbamoyl)-5,8-dioxo-1,2,3,3a,5,6,7,8,11,12,20,23,24,24a-tetradecahydro-10H-9,12-methanocyclopenta[18,19][1,10,3,6]dioxadiazacyclononadecino[11,12-b]quinolin-19-yl]oxy}propyl dihydrogen phosphate]	180	1000			
C=C[C@@H]1C[C@]1(NC(=O)[C@@H]1C[C@@H]2CN1C(=O)[C@H](C1CCCCC1)NC(=O)O[C@@H]1C[C@H]1CCCCCc1c(nc3ccccc3c1OC1CC3CCC(C1)N3)O2)C(=O)NS(=O)(=O)C1(C)CC1 (stereo partly drawn) [Example 283, potassium {[(1R,2S)-1-({[(1aR,5S,8S,10R,22aR)-17-(8-azabicyclo[3.2.1]oct-3-yloxy)-5-cyclohexyl-3,6-dioxo-1,1a,3,4,5,6,9,10,18,19,20,21,22,22a-tetradecahydro-8H-7,10-methanocyclopropa[18,19][1,10,3,6]dioxadiazacyclononadecino[11,12-b]quinolin-8-yl]carbonyl}amino)-2-ethenylcyclopropyl]carbonyl}[(1-methylcyclopropyl)sulfonyl]azanide]		108	14	22	
COc1c2c(nc3ccccc13)O[C@@H]1C[C@@H](C(=O)N[C@]3(C(=O)NS(=O)(=O)C4CC4)C[C@H]3C3CC3)N(C1)C(=O)[C@H](C1CCCC1)NC(=O)O[C@@H]1CCC[C@H]1CC/C=C/C2 [Example 13, (3aR,7S,10S,12R,21E,24aS)-7-cyclopentyl-N-[(1S,2R)-2-[(cyclopropylsulfonyl)carbamoyl]-1,1′-bi(cyclopropyl)-2-yl]-19-methoxy-5,8-dioxo-1,2,3,3a,5,6,7,8,11,12,20,23,24,24a-tetradecahydro-10H-9,12-methanocyclopenta[18,19][1,10,3,6] dioxadiazacyclononadecino[11,12-b]quinoline-10-carboxamide]	930	15000			
C=C[C@@H]1C[C@]1(NC(=O)[C@@H]1C[C@@H]2CN1C(=O)[C@H](C1CCCC1)NC(=O)O[C@]1(C)CCC[C@H]1CC/C=C/Cc1c(nc3ccccc3c1OCc1ccccc1)O2)C(=O)NS(=O)(=O)C1CC1 [Example 14, (3aR,7S,10S,12R,21E,24aS)-19-(benzyloxy)-7-cyclopentyl-N-{(1R,2S)-1-[(cyclopropylsulfonyl)carbamoyl]-2-ethenylcyclopropyl}-3a-methyl-5,8-dioxo-1,2,3,3a,5,6,7,8,11,12,20,23,24,24a-tetradecahydro-10H-9,12-methanocyclopenta[18,19] [1,10,3,6]dioxadiazacyclononadecino[11,12-b] quinoline-10-carboxamide]	810				28000
C=C[C@@H]1C[C@]1(NC(=O)[C@@H]1C[C@@H]2CN1C(=O)[C@H](C1CCCC1)NC(=O)O[C@@]1(C)CCC[C@@H]1CCCCCc1c(nc3ccccc3c1O)O2)C(=O)NS(=O)(=O)C1CC1 [Example 30, (3aS,7S,10S,12R,24aS)-7-cyclopentyl-N-{(1R,2S)-1-[(cyclopropylsulfonyl)carbamoyl]-2-ethenylcyclopropyl}-19-hydroxy-3a-methyl-5,8-dioxo-1,2,3,3a,5,6,7,8,11,12,20,21,22,23,24,24a-hexa-decahydro-10H-9,12-methanocyclopenta[18,19] [1,10,3,6]dioxadiazacyclononadecino[11,12-b] quinoline-10-carboxamide]	1300	4900			
C=C[C@@H]1C[C@]1(NC(=O)[C@@H]1C[C@@H]2CN1C(=O)[C@H](C(C)(C)C)NC(=O)O[C@]1(C)C[C@H]1CCCCCc1c(nc3ccccc3c1OCCN1CCOCC1)O2)C(=O)NS(=O)(=O)C1CC1 [Example 100, (1aR,5S,8S,10R,22aR)-5-tert-butyl-N-{(1R,2S)-1-[(cyclopropylsulfonyl)carbamoyl]-2-ethenylcyclopropyl}-1a-methyl-17-[2-(morpholin-4-yl)ethoxy]-3,6-dioxo-1,1a,3,4,5,6,9, 10,18,19,20,21,22,22a-tetradecahydro-8H-7,10-methanocyclopropa[18,19] [1,10,3,6]dioxadiazacyclonona decino[11,12-b]quinoline-8-carboxamide]	240	2000			
C=C[C@@H]1C[C@]1(NC(=O)[C@@H]1C[C@@H]2CN1C(=O)[C@H](CC1CCCCC1)NC(=O)O[C@@H]1C[C@H]1CCCCCc1c(nc3ccccc3c1OCCN1CCOCC1)O2)C(=O)NS(=O)(=O)C1(C)CC1 [Example 125, (1aR,5S,8S,10R,22aR)-5-(cyclohexylmethyl)-N-[(1R,2S)-2-ethenyl-1-{[(1-methylcyclopropyl)sulfonyl]carbamoyl}cyclopropyl]-17-[2-(morpholin-4-yl)ethoxy]-3,6-dioxo-1,1a,3,4,5,6,9,10,18,19,20, 21,22,22a-tetradecahydro-8H-7,10-methanocyclopropa [18,19][1,10,3,6]dioxadiazacyclo nonadecino[11,12-b]quinoline-8-carboxamide]	4100	114000			
C=C[C@@H]1C[C@]1(NC(=O)[C@@H]1C[C@@H]2CN1C(=O)[C@H](C1CCCC1)NC(=O)O[C@@H]1CCC[C@H]1CC/C=C/Cc1c(nc3ccccc3c1OCCCN1CCNC1=O)O2)C(=O)NS(=O)(=O)C1(C)CC1 [Example 48, (3aR,7S,10S,12R,21E,24aS)-7-cyclopentyl-N-[(1R,2S)-2-ethenyl-1-{[(1-methyl-cyclopropyl)sulfonyl]carbamoyl}cyclopropyl]-5,8-dioxo-19-[3-(2-oxoimidazolidin-1-yl)propoxy]-1,2,3,3a,5,6,7,8,11,12,20,23,24,24a-tetradecahydro-10H-9,12-methanocyclopenta [18,19][1,10,3,6]dioxadiazacyclononadecino [11,12-b]quinoline-10-carboxamide]	120	760			
C=C[C@@H]1C[C@]1(NC(=O)[C@@H]1C[C@@H]2CN1C(=O)[C@H](C1CCCC1)NC(=O)O[C@@H]1CCC[C@H]1CC/C=C/Cc1c(nc3ccccc3c1OCCN1CCOC1=O)O2)C(=O)NS(=O)(=O)C1CC1 [Example 42, (3aR,7S,10S,12R,21E,24aS)-7-cyclopentyl-N-{(1R,2S)-1-[(cyclopropylsulfonyl)carbamoyl]-2-ethenylcyclopropyl}-5,8-dioxo-19-[2-(2-oxo-1,3-oxazolidin-3-yl)ethoxy]-1,2,3,3a,5,6,7,8,11,12,20,23,24,24a-tetradecahydro-10H-9,12-methanocyclopenta[18,19][1,10,3,6]dioxadiazacyclononadecino[11,12-b]quinoline-10-carboxamide]	73	1500			
C=C[C@@H]1C[C@]1(NC(=O)[C@@H]1C[C@@H]2CN1C(=O)[C@H](C(C)(C)C)NC(=O)O[C@@H]1C[C@H]1CCCCCc1c(nc3ccccc3c1OCCCN1CCOCC1)O2)C(=O)NS(=O)(=O)C1(C)CC1 [Example 116, (1aR,5S,8S,10R,22aR)-5-tert-butyl-N-[(1R,2S)-2-ethenyl-1-{[(1-methylcyclopropyl)sulfonyl]carbamoyl}cyclopropyl]-17-[3-(morpholin-4-yl)propoxy]-3,6-dioxo-1,1a,3,4,5,6,9,10,18,19,20,21, 22,22a-tetradeca hydro-8H-7,10-methanocyclopropa [18,19][1,10,3,6]dioxadiazacyclo nonadecino[11,12-b]quinoline-8-carboxamide]	170	1600			
C=C[C@@H]1C[C@]1(NC(=O)[C@@H]1C[C@@H]2CN1C(=O)[C@H](C(C)(C)C)NC(=O)O[C@@H]1CCC[C@H]1CC/C=C/Cc1c(nc3ccccc3c1OCCCO)O2)C(=O)NS(=O)(=O)C1CC1 [Example 70, (3aR,7S,10S,12R,21E,24aS)-7-tert-butyl-N-{(1R,2S)-1-[(cyclopropylsulfonyl)carbamoyl]-2-ethenylcyclopropyl}-19-(3-hydroxypropoxy)-5,8-dioxo-1,2,3,3a,5,6,7,8,11,12,20,23,24,24a-tetradecahydro-10H-9,12-methanocyclopenta[18,19][1,10,3,6]dioxadiazacyclononadecino[11,12-b]quinoline-10-carboxamide]	66	590			
